Assay results taken from the NIST ThermoML archive (doi:10.1021/je400056z).
± gives the expanded uncertainty stated by the source.

Experiment: xn = mol fraction of the nth substance listed
Settings: Liquid, Vibrating tube method

CCCCCCCCCCCCC [tridecane] + O=C=O
Settings | mass density [kg/m3]
313.15 K, 9000 kPa, x2 = 0.0955 | 750.6 ± 0.3
313.15 K, 9000 kPa, x2 = 0.2526 | 754.3 ± 0.3
313.15 K, 9000 kPa, x2 = 0.7549 | 791.4 ± 0.3
313.15 K, 9000 kPa, x2 = 0.8978 | 790.8 ± 0.3
313.15 K, 10000 kPa, x2 = 0.0955 | 751.4 ± 0.3
313.15 K, 10000 kPa, x2 = 0.2526 | 755.1 ± 0.3
313.15 K, 10000 kPa, x2 = 0.7549 | 794.4 ± 0.3
313.15 K, 10000 kPa, x2 = 0.8978 | 795.2 ± 0.3
313.15 K, 11000 kPa, x2 = 0.0955 | 752.2 ± 0.3
313.15 K, 11000 kPa, x2 = 0.2526 | 756 ± 0.3
313.15 K, 11000 kPa, x2 = 0.7549 | 797.7 ± 0.3
313.15 K, 11000 kPa, x2 = 0.8978 | 799.4 ± 0.3
313.15 K, 12000 kPa, x2 = 0.0955 | 753 ± 0.3
313.15 K, 12000 kPa, x2 = 0.2526 | 756.8 ± 0.3
313.15 K, 12000 kPa, x2 = 0.7549 | 800.8 ± 0.3
313.15 K, 12000 kPa, x2 = 0.8978 | 803.7 ± 0.3
313.15 K, 13000 kPa, x2 = 0.0955 | 753.7 ± 0.4
313.15 K, 13000 kPa, x2 = 0.2526 | 757.6 ± 0.3
313.15 K, 13000 kPa, x2 = 0.7549 | 803.7 ± 0.3
313.15 K, 13000 kPa, x2 = 0.8978 | 807.9 ± 0.3
313.15 K, 14000 kPa, x2 = 0.0955 | 754.5 ± 0.4
313.15 K, 14000 kPa, x2 = 0.2526 | 758.4 ± 0.3
313.15 K, 14000 kPa, x2 = 0.7549 | 806.6 ± 0.3
313.15 K, 14000 kPa, x2 = 0.8978 | 812 ± 0.3
313.15 K, 15000 kPa, x2 = 0.0955 | 755.2 ± 0.4
313.15 K, 15000 kPa, x2 = 0.2526 | 759.2 ± 0.4
313.15 K, 15000 kPa, x2 = 0.7549 | 809.4 ± 0.3
313.15 K, 15000 kPa, x2 = 0.8978 | 815.9 ± 0.3
313.15 K, 16000 kPa, x2 = 0.0955 | 756 ± 0.4
313.15 K, 16000 kPa, x2 = 0.2526 | 759.9 ± 0.4
313.15 K, 16000 kPa, x2 = 0.7549 | 812.1 ± 0.3
313.15 K, 16000 kPa, x2 = 0.8978 | 819.5 ± 0.3
313.15 K, 17000 kPa, x2 = 0.0955 | 756.6 ± 0.4
313.15 K, 17000 kPa, x2 = 0.2526 | 760.7 ± 0.4
313.15 K, 17000 kPa, x2 = 0.7549 | 814.8 ± 0.3
313.15 K, 17000 kPa, x2 = 0.8978 | 823.1 ± 0.3
313.15 K, 18000 kPa, x2 = 0.0955 | 757.3 ± 0.4
313.15 K, 18000 kPa, x2 = 0.2526 | 761.4 ± 0.4
313.15 K, 18000 kPa, x2 = 0.7549 | 817.4 ± 0.3
313.15 K, 18000 kPa, x2 = 0.8978 | 826.6 ± 0.3
313.15 K, 19000 kPa, x2 = 0.0955 | 758 ± 0.4
313.15 K, 19000 kPa, x2 = 0.2526 | 762.1 ± 0.4
313.15 K, 19000 kPa, x2 = 0.7549 | 819.8 ± 0.3
313.15 K, 19000 kPa, x2 = 0.8978 | 830.1 ± 0.3
313.15 K, 20000 kPa, x2 = 0.0955 | 758.7 ± 0.4
313.15 K, 20000 kPa, x2 = 0.2526 | 762.8 ± 0.4
313.15 K, 20000 kPa, x2 = 0.7549 | 822.2 ± 0.3
313.15 K, 20000 kPa, x2 = 0.8978 | 833.3 ± 0.3
313.15 K, 21000 kPa, x2 = 0.0955 | 759.3 ± 0.4
313.15 K, 21000 kPa, x2 = 0.2526 | 763.5 ± 0.4
313.15 K, 21000 kPa, x2 = 0.7549 | 824.6 ± 0.3
313.15 K, 21000 kPa, x2 = 0.8978 | 836.4 ± 0.3
313.15 K, 22000 kPa, x2 = 0.0955 | 759.9 ± 0.4
313.15 K, 22000 kPa, x2 = 0.2526 | 764.2 ± 0.4
313.15 K, 22000 kPa, x2 = 0.7549 | 826.9 ± 0.3
313.15 K, 22000 kPa, x2 = 0.8978 | 839.5 ± 0.3
313.15 K, 23000 kPa, x2 = 0.0955 | 760.5 ± 0.4
313.15 K, 23000 kPa, x2 = 0.2526 | 764.8 ± 0.4
313.15 K, 23000 kPa, x2 = 0.7549 | 829.1 ± 0.3
313.15 K, 23000 kPa, x2 = 0.8978 | 842.6 ± 0.3
313.15 K, 24000 kPa, x2 = 0.0955 | 761.1 ± 0.4
313.15 K, 24000 kPa, x2 = 0.2526 | 765.4 ± 0.4
313.15 K, 24000 kPa, x2 = 0.7549 | 831.2 ± 0.3
313.15 K, 24000 kPa, x2 = 0.8978 | 845.4 ± 0.3
313.15 K, 25000 kPa, x2 = 0.0955 | 761.7 ± 0.4
313.15 K, 25000 kPa, x2 = 0.2526 | 766 ± 0.4
313.15 K, 25000 kPa, x2 = 0.7549 | 833.3 ± 0.3
313.15 K, 25000 kPa, x2 = 0.8978 | 848.2 ± 0.3
313.16 K, 8000 kPa, x2 = 0.5259 | 768.4 ± 0.3
313.16 K, 9000 kPa, x2 = 0.5259 | 769.6 ± 0.3
313.16 K, 10000 kPa, x2 = 0.5259 | 770.7 ± 0.3
313.16 K, 11000 kPa, x2 = 0.5259 | 771.9 ± 0.3
313.16 K, 12000 kPa, x2 = 0.5259 | 773 ± 0.3
313.16 K, 13000 kPa, x2 = 0.5259 | 774.1 ± 0.3
313.16 K, 14000 kPa, x2 = 0.5259 | 775.1 ± 0.3
313.16 K, 15000 kPa, x2 = 0.5259 | 776.2 ± 0.3
313.16 K, 16000 kPa, x2 = 0.5259 | 777.2 ± 0.3
313.16 K, 17000 kPa, x2 = 0.5259 | 778.2 ± 0.3
313.16 K, 18000 kPa, x2 = 0.5259 | 779.2 ± 0.3
313.16 K, 19000 kPa, x2 = 0.5259 | 780.2 ± 0.4
313.16 K, 20000 kPa, x2 = 0.5259 | 781.1 ± 0.4
313.16 K, 21000 kPa, x2 = 0.5259 | 782 ± 0.4
313.16 K, 23000 kPa, x2 = 0.5259 | 783.8 ± 0.4
313.16 K, 24000 kPa, x2 = 0.5259 | 784.6 ± 0.4
313.16 K, 25000 kPa, x2 = 0.5259 | 785.5 ± 0.4
323.14 K, 11000 kPa, x2 = 0.8978 | 772.5 ± 0.3
323.14 K, 12000 kPa, x2 = 0.8978 | 777.9 ± 0.3
323.14 K, 13000 kPa, x2 = 0.8978 | 782.8 ± 0.4
323.14 K, 14000 kPa, x2 = 0.8978 | 787.3 ± 0.4
323.14 K, 15000 kPa, x2 = 0.8978 | 791.5 ± 0.4
323.14 K, 16000 kPa, x2 = 0.8978 | 795.7 ± 0.4
323.14 K, 17000 kPa, x2 = 0.8978 | 799.7 ± 0.4
323.14 K, 18000 kPa, x2 = 0.8978 | 803.4 ± 0.3
323.14 K, 19000 kPa, x2 = 0.8978 | 807.2 ± 0.3
323.14 K, 20000 kPa, x2 = 0.8978 | 810.7 ± 0.3
323.14 K, 21000 kPa, x2 = 0.8978 | 814 ± 0.3
323.14 K, 22000 kPa, x2 = 0.8978 | 817.5 ± 0.3
323.14 K, 23000 kPa, x2 = 0.8978 | 820.7 ± 0.3
323.14 K, 24000 kPa, x2 = 0.8978 | 823.8 ± 0.3
323.14 K, 25000 kPa, x2 = 0.8978 | 826.7 ± 0.3
323.16 K, 9000 kPa, x2 = 0.0955 | 743.8 ± 0.3
323.16 K, 9000 kPa, x2 = 0.2526 | 747 ± 0.3
323.16 K, 10000 kPa, x2 = 0.0955 | 744.6 ± 0.3
323.16 K, 10000 kPa, x2 = 0.2526 | 747.9 ± 0.3
323.16 K, 11000 kPa, x2 = 0.0955 | 745.4 ± 0.3
323.16 K, 11000 kPa, x2 = 0.2526 | 748.7 ± 0.3
323.16 K, 11000 kPa, x2 = 0.7549 | 778.8 ± 0.4
323.16 K, 12000 kPa, x2 = 0.0955 | 746.2 ± 0.3
323.16 K, 12000 kPa, x2 = 0.2526 | 749.6 ± 0.3
323.16 K, 12000 kPa, x2 = 0.7549 | 781.9 ± 0.3
323.16 K, 13000 kPa, x2 = 0.0955 | 746.9 ± 0.4
323.16 K, 13000 kPa, x2 = 0.2526 | 750.4 ± 0.3
323.16 K, 13000 kPa, x2 = 0.7549 | 785.1 ± 0.3
323.16 K, 14000 kPa, x2 = 0.0955 | 747.7 ± 0.4
